{"source": "PubChem BioAssay AID2253", "about": "(Southern Research Specialized Biocontainment Screening …, 2010)", "data": [{"system": "THP-1 viability, CellTiter-Glo luminescence, 72 h", "test": "THP-1 cell cytotoxicity, dose response, cytotoxicity control for Salmonella PhoP regulon inhibitors, S. typhimurium screen hits (AID 2253)", "units": {"EC50": "µM"}, "values": [{"compound": "Cc1cc(C)c2ccc(N)nc2c1O", "EC50": 2.91}, {"compound": "Oc1c(CN2CCCCC2)cc(COCc2ccccc2)c2cccnc12", "EC50": 6}, {"compound": "O=C(c1ccccc1)C(CN1CCCC1)c1ccccc1", "note": "(stereo unspecified)", "EC50": 5.56}, {"compound": "S=C(NN=C1C2CC3CC(C2)CC1C3)Nc1ccccc1", "EC50": 30.4}, {"compound": "CCCCCCCCCCOC(=O)Cn1c(COc2ccccc2)[n+](C)c2ccccc21", "EC50": 8.34}, {"compound": "OC(CNCCc1ccccc1)COc1ccc(OCC(O)CNCCc2ccccc2)cc1", "note": "(stereo unspecified)", "EC50": 6}, {"compound": "O=C(Nc1cccc(N=Cc2cc(Br)cc(Br)c2O)c1)c1ccco1", "EC50": 38.5}, {"compound": "COc1ccccc1-c1c(C#N)c(N)nc2c1CCc1ccccc1-2", "EC50": 13.2}, {"compound": "O=C(NC(=S)NNC(=O)c1ccccc1O)c1ccco1", "EC50": 14.6}, {"compound": "C=CS(=O)(=O)c1ccc(Oc2ccc(S(=O)(=O)C=C)cc2)cc1", "EC50": 1.4}, {"compound": "NC1=NC2(CCCCC2)N=C(Nc2ccc(Br)cc2)N1", "EC50": 2.8}, {"compound": "COc1ccccc1CNCC(O)Cn1c2ccccc2c2ccccc21", "note": "(stereo unspecified)", "EC50": 8.21}, {"compound": "COc1cccc(Nc2nc(NCC3CCCO3)c3ccccc3n2)c1", "note": "(stereo unspecified)", "EC50": 2.88}, {"compound": "Oc1ccccc1Nc1nc(NCc2ccco2)c2ccccc2n1", "EC50": 13.2}, {"compound": "Cc1ccc(C(=O)Sc2cccccc2=O)cc1", "EC50": 2.64}, {"compound": "O=C1C2=C(NC(=S)NC2c2ccc(Cl)cc2)NC(c2ccc(Cl)cc2)N1c1ccc(Cl)cc1", "note": "(stereo unspecified)", "EC50": 11.3}, {"compound": "Oc1ccc(N=Cc2ccc(O)c(O)c2)cc1", "EC50": 7.64}, {"compound": "OC(c1cc(C(F)(F)F)nc2c(Cl)cc(Cl)cc12)C1CCCCN1", "note": "(stereo unspecified)", "EC50": 12.6}, {"compound": "C#CCOCCOCCOCCNc1nc(N2CCN(C(=O)CCCCCCCCCCNC(=O)[C@H]([C@@H](C)CC)n3cc(CCCCN=C(N)N)nn3)CC2)nc(N2CCN(C(=O)CCCCCCCCCCNC(=O)[C@H]([C@@H](C)CC)n3cc(CCCCN=C(N)N)nn3)CC2)n1", "EC50": 4.39}, {"compound": "O=C(N/N=C/C1C(c2ccccc2)C1(Cl)Cl)c1cccc(Cl)c1", "note": "(stereo unspecified)", "EC50": 44}, {"compound": "CN(c1cccc(Cl)c1)S(=O)(=O)c1cccc(C(=O)Nc2nc3ccccc3[nH]2)c1", "EC50": 13.3}, {"compound": "CC(C)(C)c1ccc(C(=O)NC(=S)NCc2cccnc2)cc1", "EC50": 46.5}, {"compound": "CC(NCc1ccc(Cl)c(Cl)c1)C(O)c1ccccc1", "note": "(stereo unspecified)", "EC50": 40}, {"compound": "O=C(N/N=C/c1ccc([N+](=O)[O-])o1)c1ccc(O)cc1", "EC50": 12}, {"compound": "Cc1ccc(C(=O)N/N=C/c2cc(Br)ccc2O)cn1", "EC50": 1.78}, {"compound": "CC[n+]1c(/C=C/C=C/c2ccc(N(C)C)cc2)sc2ccccc21", "EC50": 1.5}, {"compound": "OCCNCc1c(OCc2ccc(Cl)cc2)ccc2ccccc12", "EC50": 7.52}, {"compound": "O=S(=O)(Nc1ccc(N=Nc2ccc(O)c3ccccc23)cc1)c1ccccc1", "EC50": 22}, {"compound": "O=C(/C=C/c1ccccc1Cl)c1ccccc(=O)c1O", "EC50": 12.6}, {"compound": "CC(C)C(=O)NC(c1cccc([N+](=O)[O-])c1)c1ccc2cccnc2c1O", "note": "(stereo unspecified)", "EC50": 0.51}, {"compound": "Cc1cc(C)nc(/N=C(\\N)Nc2ccc(SC(F)F)cc2)n1", "EC50": 13.1}, {"compound": "COc1ccc(/C=N/Nc2cc(C)nc3c(C)cccc23)cc1", "EC50": 7.25}, {"compound": "NC1=NC[C@H](c2ccccc2)N1CCCCC1CCCCC1", "EC50": 5.06}, {"compound": "Cc1c(C)n(Cc2ccccc2)c2ncnc(NN)c12", "EC50": 23.4}, {"compound": "O=[N+]([O-])c1cc(F)c2cccnc2c1O", "EC50": 30.5}, {"compound": "CCCCCCCCCCOC(=O)Cn1c(COc2cccc(C)c2)[n+](C)c2ccccc21", "EC50": 4.4}, {"compound": "Nc1nonc1-n1nnc(C(=O)N/N=C/c2ccc(Br)cc2)c1CSC1=NCCS1", "EC50": 23.7}, {"compound": "Cc1nc([N+](=O)[O-])c(Br)n1CC(=O)c1ccccc1", "EC50": 17.7}, {"compound": "C#CC(=O)N(c1cc(OC)ccc1OC)C(C(=O)NC1CCCC1)c1cccs1", "note": "(stereo unspecified)", "EC50": 1.42}, {"compound": "Cc1cc(C)cc(OC(=O)CS(=O)c2ccc(C(F)(F)F)cc2[N+](=O)[O-])c1", "note": "(stereo unspecified)", "EC50": 5.98}, {"compound": "Cc1ccc(C=Nc2ccccc2C(N)=O)s1", "EC50": 10.8}, {"compound": "CN1CCc2c(sc(NC(=O)c3ccc([N+](=O)[O-])o3)c2C(N)=O)C1", "EC50": 0.61}, {"compound": "O=Nc1ccc(O)c2ncccc12", "EC50": 1.77}, {"compound": "Cc1ccc(C(C[N+](=O)[O-])c2c(N)n(C)c(=O)n(C)c2=O)cc1", "note": "(stereo unspecified)", "EC50": 34.2}, {"compound": "O=[N+]([O-])c1ccc(NCCCNS(=O)(=O)c2ccccc2)c(Cl)c1", "EC50": 42.4}, {"compound": "N/C(=N/OC(=O)c1ccccc1Cl)c1ncc([N+](=O)[O-])s1", "EC50": 18.8}, {"compound": "O=C(N/N=C/c1ccc(O)cc1O)C(=O)N/N=C/c1ccc(O)cc1O", "EC50": 6.9}, {"compound": "O=c1c2c(-c3ccccc3)csc2nc2c3ccccc3c(NCCN3CCOCC3)nn12", "EC50": 3.11}, {"compound": "CC(=O)NC(c1ccc(Cl)cc1Cl)c1ccc2cccnc2c1O", "note": "(stereo unspecified)", "EC50": 0.28}, {"compound": "CCn1c2ccccc2c2cc(N)ccc21", "EC50": 16.1}, {"compound": "O=S1(=O)CCC(NC(=S)SCCOc2ccccc2)C1", "note": "(stereo unspecified)", "EC50": 16.2}, {"compound": "Cc1cc(C2=NNC(=NC3CC3)SC2)c(C)n1-c1ccccc1", "EC50": 46.9}, {"compound": "Cc1cc(O)ccc1Nc1nc2ccccc2nc1Nc1ccc(O)cc1C", "EC50": 24.4}, {"compound": "CC(C(=O)NC1CCS(=O)(=O)C1)N1C(=O)/C(=C/c2ccc(Cl)cc2)SC1=S", "note": "(stereo unspecified)", "EC50": 48.9}, {"compound": "c1ccc(C2CNCc3c2ccc2ccccc32)cc1", "note": "(stereo unspecified)", "EC50": 11}, {"compound": "CCOc1ccc(Nc2c3ccccc3nc3ccccc23)cc1", "EC50": 1.24}, {"compound": "CN(Cc1ccccc1)CC(O)COc1ccc(CNCc2ccc(Cl)s2)cc1", "note": "(stereo unspecified)", "EC50": 33.4}, {"compound": "C=COC(=O)CSc1snc(SCC(=O)OC)c1C#N", "EC50": 32.3}, {"compound": "CCc1ccc(C(c2c(C)nn(-c3ccccc3)c2N)c2c(C)nn(-c3ccccc3)c2N)cc1", "EC50": 46.1}, {"compound": "O=C1/C(=C/c2ccccc2)NC(=S)N1C(c1ccccc1)c1ccccc1", "EC50": 4.48}, {"compound": "O=C(NNc1nc(-c2ccccc2)cs1)c1ccccc1", "EC50": 26.1}]}]}
